In patent US11034696B2, “Compounds for inhibiting LRRK2 kinase activity” (GLAXOSMITHKLINE INTELLECTUAL PROPERTY DEVELOPMENT LIMITED, priority 2017, dated 2021):
Values joined by “and” are separate entries in the source; they are usually repeats but may differ in a detail not shown here. Equal entries are not always repeated.

target: T1, LRRK2 (Homo sapiens, UniProt Q5S007); assay: Recombinant cellular LRRK2 AlphaScreen assay (LRRK2 Ser935 phosphorylation in SH-SY5Y cells over-expressing recombinant full length LRRK2); assay type: cell-based; details: 60 minutes compound incubation, read-out: pIC50 in the recombinant cellular LRRK2 AlphaScreen assay (converted)
T1 construct: A BacMam virus expressing full length recombinant LRRK2 was purchased from Invitrogen; host or cells: SH-SY5Y human neuroblastoma cells transduced with BacMam LRRK2 virus
Description: 2) Recombinant Cellular LRRK2 AlphaScreen Assay
To determine the activity of compounds against LRRK2 kinase activity in cells, the observed LRRK2 kinase-dependent modulation of LRRK2 Ser 935 phosphorylation (Dzamko et al., 2010, Biochem. J. 430: 405-413) was utilized to develop a quantitative 384 well plate-based immunoassay of LRRK2 Ser935 phosphorylation in the human neuroblastoma cell line SH-SY5Y, engineered to over-express recombinant full length LRRK2 protein.
A BacMam virus expressing full length recombinant LRRK2 was purchased from Invitrogen and amplified by inoculation of SF-9 cells at MOI 0.3 for 4-5 days in Sf-900 III SFM medium supplemented with 3% fetal bovine serum. Infected cell cultures were then centrifuged at 2000 g for 20 minutes, viral supernatant titer determined by anti-gp64 plaque assay and stored at 4° C.
Affinity-purified anti-phospho LRRK2 Ser935 sheep polyclonal antibody (Dzamko et al., 2010, Biochem. J. 430: 405-413) was biotinylated by standard methods (PerkinElmer). Anti-LRRK2 rabbit polyclonal antibody was purchased from Novus Biologicals. AlphaScreen Protein A IgG Kit (including acceptor and donor beads) was purchased from Perkin Elmer. […]
Serial dilutions of test compounds were prepared in Opti-MEM reduced serum media (Invitrogen) and 5.6 ul transferred from compound plate to cell assay plate to achieve a top final assay concentration of 10 uM. […] 10 ul of antibody/acceptor bead mix [(1/1000 biotinylated-pS935 LRRK2 antibody, 1/1000 total-LRRK2 antibody, 1/100 Acceptor beads in AlphaScreen detection buffer (25 mM Hepes (pH 7.4), 0.5% Triton X-100, 1 mg/ml Dextran 500 and 0.1% BSA)] was then added to each well and plates incubated for 2 hours at ambient temperature in the dark. 10 μl of donor beads solution (1/33.3 donor beads in AlphaScreen detection buffer) was then added to each well. Following incubation for a further 2 hours at ambient temperature in the dark, plates were read on an EnVision™ plate reader at emission 520-620 nm with excitation 680 nm. […]

T1 sequence (Q5S007 whole entry): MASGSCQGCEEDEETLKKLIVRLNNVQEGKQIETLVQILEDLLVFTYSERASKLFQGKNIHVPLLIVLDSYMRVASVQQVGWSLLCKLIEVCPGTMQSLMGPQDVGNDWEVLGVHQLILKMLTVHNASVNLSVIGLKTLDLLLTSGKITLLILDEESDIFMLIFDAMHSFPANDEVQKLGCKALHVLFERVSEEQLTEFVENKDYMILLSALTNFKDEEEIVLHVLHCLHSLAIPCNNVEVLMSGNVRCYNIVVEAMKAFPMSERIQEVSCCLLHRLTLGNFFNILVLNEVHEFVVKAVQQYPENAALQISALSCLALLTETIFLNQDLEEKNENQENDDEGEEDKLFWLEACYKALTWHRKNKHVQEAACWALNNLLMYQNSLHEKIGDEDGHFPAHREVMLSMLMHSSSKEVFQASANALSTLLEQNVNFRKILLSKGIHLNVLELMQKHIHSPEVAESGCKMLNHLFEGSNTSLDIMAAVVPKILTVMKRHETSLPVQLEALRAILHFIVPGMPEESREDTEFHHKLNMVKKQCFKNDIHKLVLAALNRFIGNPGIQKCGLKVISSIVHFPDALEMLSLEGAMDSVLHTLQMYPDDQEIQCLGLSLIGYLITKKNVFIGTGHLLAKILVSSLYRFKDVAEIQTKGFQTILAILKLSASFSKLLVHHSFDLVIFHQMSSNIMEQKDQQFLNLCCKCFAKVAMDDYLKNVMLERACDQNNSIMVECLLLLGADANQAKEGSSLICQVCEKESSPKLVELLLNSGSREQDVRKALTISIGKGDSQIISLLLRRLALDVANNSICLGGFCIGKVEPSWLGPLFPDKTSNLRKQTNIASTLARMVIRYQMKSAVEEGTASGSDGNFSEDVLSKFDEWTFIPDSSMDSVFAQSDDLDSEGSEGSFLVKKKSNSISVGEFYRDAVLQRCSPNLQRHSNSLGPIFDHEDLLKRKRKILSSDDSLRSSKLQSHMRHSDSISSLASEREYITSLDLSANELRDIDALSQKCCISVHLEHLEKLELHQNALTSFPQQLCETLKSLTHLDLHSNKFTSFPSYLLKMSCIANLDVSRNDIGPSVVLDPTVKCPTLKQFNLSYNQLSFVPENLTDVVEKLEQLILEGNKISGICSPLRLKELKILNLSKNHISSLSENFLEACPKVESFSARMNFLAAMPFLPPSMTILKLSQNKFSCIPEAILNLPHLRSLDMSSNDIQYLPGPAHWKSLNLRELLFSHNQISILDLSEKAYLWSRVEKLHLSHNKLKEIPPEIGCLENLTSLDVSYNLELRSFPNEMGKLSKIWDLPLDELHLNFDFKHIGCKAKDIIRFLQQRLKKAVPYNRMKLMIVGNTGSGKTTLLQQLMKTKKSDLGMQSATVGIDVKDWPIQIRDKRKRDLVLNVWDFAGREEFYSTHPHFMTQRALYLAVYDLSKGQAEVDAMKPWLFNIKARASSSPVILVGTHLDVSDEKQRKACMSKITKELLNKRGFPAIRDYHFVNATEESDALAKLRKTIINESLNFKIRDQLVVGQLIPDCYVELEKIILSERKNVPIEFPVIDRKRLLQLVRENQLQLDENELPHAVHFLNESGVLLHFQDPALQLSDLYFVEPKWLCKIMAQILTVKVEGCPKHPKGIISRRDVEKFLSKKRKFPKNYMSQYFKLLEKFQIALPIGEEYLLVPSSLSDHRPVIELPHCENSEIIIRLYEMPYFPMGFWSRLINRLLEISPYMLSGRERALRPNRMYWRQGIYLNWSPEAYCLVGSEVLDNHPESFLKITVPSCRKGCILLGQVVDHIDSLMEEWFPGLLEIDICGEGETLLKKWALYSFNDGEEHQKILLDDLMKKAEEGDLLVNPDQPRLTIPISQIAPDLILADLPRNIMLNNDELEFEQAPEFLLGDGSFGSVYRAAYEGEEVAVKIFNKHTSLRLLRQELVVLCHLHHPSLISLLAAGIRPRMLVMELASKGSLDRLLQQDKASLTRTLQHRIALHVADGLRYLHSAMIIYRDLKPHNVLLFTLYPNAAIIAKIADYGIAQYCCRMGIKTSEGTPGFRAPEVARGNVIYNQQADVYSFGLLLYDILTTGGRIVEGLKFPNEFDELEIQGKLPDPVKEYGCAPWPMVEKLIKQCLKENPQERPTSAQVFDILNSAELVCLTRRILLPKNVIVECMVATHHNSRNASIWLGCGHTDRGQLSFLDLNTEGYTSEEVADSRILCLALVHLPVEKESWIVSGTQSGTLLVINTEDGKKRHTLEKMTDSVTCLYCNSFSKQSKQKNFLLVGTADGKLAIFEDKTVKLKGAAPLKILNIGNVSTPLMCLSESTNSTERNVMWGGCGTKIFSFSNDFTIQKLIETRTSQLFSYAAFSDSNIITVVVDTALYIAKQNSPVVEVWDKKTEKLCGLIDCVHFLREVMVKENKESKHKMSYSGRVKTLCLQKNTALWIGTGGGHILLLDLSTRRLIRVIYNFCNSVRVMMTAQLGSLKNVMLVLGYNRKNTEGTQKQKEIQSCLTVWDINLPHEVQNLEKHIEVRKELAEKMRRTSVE

Row | IC50 | SMILES
1 | ≤ 100 nM | COc1nc(N2CCN3CCC[C@@H]3C2)cc(-n2ncc3cc(C)c(C4CCN(C5COC5)CC4F)cc32)n1 (single isomer, unassigned) [Example A-1]
2 | ≤ 100 nM | COc1nc(N2CCN3CCC[C@H]3C2)cc(-n2ncc3cc(C)c(C4CCN(C5COC5)CC4F)cc32)n1 (single isomer, unassigned) [Example A-2]
3 | 7.94 nM and ≤ 100 nM | COc1nc(N2CCN3CCOCC3C2)cc(-n2ncc3cc(C)c(C4CCN(C5COC5)CC4)cc32)n1 (single isomer, unassigned) [Example A-13, 8-(2-methoxy-6-(5-methyl-6-(1-(oxetan-3-yl)piperidin-4-yl)-1H-indazol-1-yl)pyrimidin-4-yl)octahydropyrazino[2,1-c][1,4]oxazine]
